Laboratory results: patent publication US10966994B2, “Thromboxane receptor antagonists” (ATXA THERAPEUTICS LIMITED, priority 2015, dated 2021)

Experiments:
[1] = biological target: T1, TPα (Homo sapiens, UniProt P21731); assay: U46619-mediated calcium mobilization in HEK.TPα cells; format: cell-based; conditions: for inhibition of U46619-mediated calcium mobilization, TPα (in words): 1 μM U46619; for IC50: 1 μM U46619, estimated IC50, mean ± S.E.M., read-out: IC50 values for Inhibition of U46619-Mediated [Ca2+]i Mobilisation, TPα
T1 construct: expressed in transfected cells; host or cells: HEK 293 (HEK.TPα, isolate HR #4)
T1 sequence (P21731 1-343): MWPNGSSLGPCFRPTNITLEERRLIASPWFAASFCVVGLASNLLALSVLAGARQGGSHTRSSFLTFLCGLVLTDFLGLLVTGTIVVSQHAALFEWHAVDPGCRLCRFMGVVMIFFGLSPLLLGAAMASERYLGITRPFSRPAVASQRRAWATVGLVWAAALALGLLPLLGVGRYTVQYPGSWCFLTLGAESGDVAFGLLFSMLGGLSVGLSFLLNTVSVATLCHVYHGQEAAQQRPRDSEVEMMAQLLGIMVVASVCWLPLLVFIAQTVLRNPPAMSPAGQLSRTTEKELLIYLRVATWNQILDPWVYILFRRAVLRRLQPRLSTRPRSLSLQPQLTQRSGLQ
Procedure: (§1) NTP42-NTP49, northern group variants of NTP4, were assessed through calcium mobilization assays using proprietary HEK 293 cells over-expressing the thromboxane (TX)A2 receptor, α (TPα) and β (TPβ) isoforms, referred to as HEK.TPα and HEK.TPβ cells, respectively. The initial screening involved dose-responses assays (concentrations used 0.0001 (TPβ only), 0.001, 0.1, 1 & 10 μM; (TPα and TPβ)) followed by more focused, full dose response assays (concentration range: 0.00001 to 10 μM) for determination of IC50 values where the effect of the compounds on calcium mobilized in response to the TXA2 mimetic U46619 (1 μM) were performed in side-by-side comparison with the key lead compounds TP20 and NTP4.
(§2) As stated, NTP42-NTP49 were screened through calcium mobilization assays using HEK.TPα and HEK.TPβ cells over-expressing the thromboxane (TX)A2 receptor, α (TPα) and β (TPβ) isoforms, respectively. The initial screening involved dose-response assays where the compounds, used at 0.0001 (TPβ only), 0.001, 0.1, 1 & 10 μM (TPα and TPβ), were assessed for their ability to inhibit the TXA2 mimetic U46619 (1 μM). The compounds were tested in side-by-side assays with the previously identified key lead compounds TP20 and NTP4.
(§3) HEK.TPα (HR #4) cells, preloaded with Fluo-4, were incubated with the TP20, NTP4, NTP42, NTP43, NTP44, NTP45, NTP47, NTP48 & NTP49 where each antagonist was used at 0.001, 0.1, 1 & to 10 μM, as indicated, prior to stimulation with 1 μM U46619. Data is presented as the mean (±S.E.M.) percentage of the agonist-induced response in vehicle-treated cells (Percentage of Control; %) and represents data from at least 4 independent experiments were cells were treated in duplicate.
as §3, with “NTP42, NTP43 and” for “NTP42, NTP43, NTP44, NTP45, NTP47,”, “NTP48” for “NTP48 & NTP49”, “at 0.00001-10” for “at 0.001, 0.1, 1 & to 10”, “the agonist induced” for “the agonist-induced”, “least 3” for “least 4”

[2] = biological target: T2, EP3 receptor (Homo sapiens, UniProt P43115); assay: Specificity testing, EP3 receptor signaling; format: cell-based
T2 sequence (P43115 1-390): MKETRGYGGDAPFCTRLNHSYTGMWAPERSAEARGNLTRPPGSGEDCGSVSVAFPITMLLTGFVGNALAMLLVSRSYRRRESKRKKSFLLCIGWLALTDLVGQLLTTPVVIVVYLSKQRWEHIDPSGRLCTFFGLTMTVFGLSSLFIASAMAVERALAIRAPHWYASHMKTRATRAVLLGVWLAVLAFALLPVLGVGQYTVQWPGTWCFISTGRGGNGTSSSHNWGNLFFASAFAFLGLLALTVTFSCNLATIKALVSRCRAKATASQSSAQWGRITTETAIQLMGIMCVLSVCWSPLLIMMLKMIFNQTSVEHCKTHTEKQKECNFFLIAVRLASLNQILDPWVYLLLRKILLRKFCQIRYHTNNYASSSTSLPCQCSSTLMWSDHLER

[3] = biological target: T3, TPβ (Homo sapiens, UniProt P21731); assay: U46619-mediated calcium mobilization in HEK.TPβ cells; format: cell-based; conditions: for inhibition of U46619-mediated calcium mobilization, TPβ (in words): 1 μM U46619; for IC50: 1 μM U46619, estimated IC50, mean ± S.E.M., read-out: IC50 values for Inhibition of U46619-Mediated [Ca2+]i Mobilisation, TPβ
T3 construct: expressed in transfected cells; host or cells: HEK 293 (HEK.TPβ, isolate EM #8)
Procedure: as §1, §2
as §3, with “HEK.TPβ (EM #8) cells, preloaded” for “HEK.TPα (HR #4) cells, preloaded”, “used at 0.0001, 0.001, 0.1,” for “used at 0.001, 0.1,”
as §3, with “HEK.TPβ (EM #8)” for “HEK.TPα (HR #4)”, “NTP43 and” for “NTP43, NTP44, NTP45, NTP47,”, “NTP48” for “NTP48 & NTP49”, “0.00001-10” for “0.001, 0.1, 1 & to 10”

[4] = biological target: T4, thrombin (PAR1) receptors (Homo sapiens, UniProt P25116); assay: Specificity testing, thrombin (PAR1) receptor signaling
T4 sequence (P25116 22-425): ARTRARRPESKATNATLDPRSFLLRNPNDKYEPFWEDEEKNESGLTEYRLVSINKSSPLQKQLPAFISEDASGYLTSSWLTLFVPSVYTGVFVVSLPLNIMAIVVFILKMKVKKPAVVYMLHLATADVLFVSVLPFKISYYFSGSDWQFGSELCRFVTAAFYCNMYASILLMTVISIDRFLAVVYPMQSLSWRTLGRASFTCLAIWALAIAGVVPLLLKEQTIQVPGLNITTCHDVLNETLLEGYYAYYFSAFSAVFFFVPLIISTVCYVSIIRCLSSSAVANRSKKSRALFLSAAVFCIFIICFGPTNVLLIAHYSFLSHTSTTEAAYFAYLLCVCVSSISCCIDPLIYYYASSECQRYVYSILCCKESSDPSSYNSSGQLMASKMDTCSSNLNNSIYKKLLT

[5] = Cell permeability; format: in vitro ADME

T3 sequence (P21731 1-407 isoform P21731-2): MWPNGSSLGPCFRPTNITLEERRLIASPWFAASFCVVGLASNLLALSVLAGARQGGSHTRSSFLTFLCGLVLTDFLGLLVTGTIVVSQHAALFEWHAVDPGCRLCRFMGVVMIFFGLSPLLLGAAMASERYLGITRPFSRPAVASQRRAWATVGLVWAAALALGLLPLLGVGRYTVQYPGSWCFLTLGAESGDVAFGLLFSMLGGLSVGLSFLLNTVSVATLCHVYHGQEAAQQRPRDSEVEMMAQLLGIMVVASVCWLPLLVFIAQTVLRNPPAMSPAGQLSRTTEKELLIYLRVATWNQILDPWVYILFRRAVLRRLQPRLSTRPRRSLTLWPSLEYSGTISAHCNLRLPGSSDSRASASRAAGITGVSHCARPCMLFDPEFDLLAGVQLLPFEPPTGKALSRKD

For `COc1ccc(-c2cccc(Oc3ccc(C#N)cc3S(=O)(=O)NC(=O)NC(C)(C)C)c2)cc1` [NTP4, reference compound], the “inhibition of U46619-mediated calcium mobilization, TPα (in words)” value [1] was “potently inhibited”, the “effect on the EP3 receptor” value [2] was “like TP20 and NTP4, neither NTP42, NTP43 nor NTP48 exhibited any effect” and the “inhibition of U46619-mediated calcium mobilization, TPβ (in words)” value [3] was “potently inhibited”. For the same compound, the “effect on signaling through thrombin (PAR1) receptors” value (shortened to “effect on signaling through thrombin”) [4] was “like TP20 and NTP4, neither NTP42, NTP43 nor NTP48 exhibited any effect”.

For `CC(C)(C)NC(=O)NS(=O)(=O)c1cc(C#N)ccc1Oc1cccc(-c2ccc(OC(F)F)cc2)c1` [NTP42], the IC50 [1] was 56.2 ± 4.84 nM, the “effect on the EP3 receptor” value [2] was “no effect” and the IC50 [3] was 8.25 ± 0.73 nM. For the same compound, the cell permeability [5] was “favorable cell permeability” and the “effect on signaling through thrombin” value [4] was “neither NTP42, NTP43 nor NTP48 exhibited any effect”.

For `CC(C)(C)NC(=O)NS(=O)(=O)c1cc(C#N)ccc1Oc1cccc(-c2ccc(OC(F)(F)F)cc2)c1` [NTP43], the IC50 [1] was 105 ± 7.95 nM, the “effect on the EP3 receptor” value [2] was “not to exhibit any effect” and the IC50 [3] was 18.4 ± 1.63 nM. For the same compound, the cell permeability [5] was “favorable cell permeability” and the “effect on signaling through thrombin” value [4] was “neither NTP42, NTP43 nor NTP48 exhibited any effect”.

In the case of `CN(C)C(=O)c1ccc(-c2cccc(Oc3ccc(C#N)cc3S(=O)(=O)NC(=O)NC(C)(C)C)c2)cc1` [NTP48, 4-[3-[2-(tert-Butylcarbamoylsulfamoyl)-4-cyano-phenoxy]phenyl]-N,N-dimethyl-benzamide], the IC50 [1] is reported as 90.1 ± 6.43 nM, the “effect on the EP3 receptor” value [2] is reported as “no effect” and the IC50 [3] is reported as 5.06 ± 1.5 nM. For the same compound, the cell permeability [5] was “favorable cell permeability” and the “effect on signaling through thrombin” value [4] was “neither NTP42, NTP43 nor NTP48 exhibited any effect”.

With `COc1ccc(-c2cccc(Oc3ccc([N+](=O)[O-])cc3S(=O)(=O)NC(=O)NC(C)(C)C)c2)cc1` [TP20, reference compound] the “inhibition of U46619-mediated calcium mobilization, TPα (in words)” value [1] was “potently inhibited”, the IC50 [1] was 125 ± 11.4 nM and the “effect on the EP3 receptor” value [2] was “like TP20 and NTP4, neither NTP42, NTP43 nor NTP48 exhibited any effect”. The “inhibition of U46619-mediated calcium mobilization, TPβ (in words)” value [3] was “potently inhibited” and the “effect on signaling through thrombin” value [4] was “like TP20 and NTP4, neither NTP42, NTP43 nor NTP48 exhibited any effect”.
